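Each compound was tested at five concentrations against cells in 96-well plates for 48 hours. GI50: concentration for 50% inhibition of growth. The concentration for full growth arrest is given as TGI.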 Where a SMILES comes first, the peptide text is derived from it. [ ]: non-standard residue; d: D form.
Columns and labels:
Assay in all cases: inhibition of tumour cell growth, NCI panel, 48 h
[1] = test system: DMS 114 small cell lung
[2] = test system: DMS 273 small cell lung
[3] = test system: KM20L2 colon
[4] = test system: M19-MEL melanoma
[5] = test system: SNB-78 CNS
[6] = test system: XF 498 CNS
[7] = test system: MDA-N
[8] = test system: RXF-631 renal

| Compound | TGI [1] [µM] | TGI [2] [µM] | TGI [3] [µM] | TGI [4] [µM] | TGI [5] [µM] | TGI [6] [µM] | TGI [7] [µM] | TGI [8] [µM] | other results |
| --- | --- | --- | --- | --- | --- | --- | --- | --- | --- |
| CCOc1ccccc1NC(=O)C1=C(C)NC(C)=C(C(=O)Nc2ccccc2OCC)C1c1cccc([N+](=O)[O-])c1 | > 100 | > 100 | > 100 | > 100 | > 100 | > 100 | – | – | – |
| C[C@H]1CC[C@@H]2[C@@H](C)[C@H]3[C@H](C[C@H]4[C@@H]5CC=C6C[C@@H](O)CC[C@]6(C)[C@H]5CC[C@]34C)N2C1 | – | – | – | – | – | – | > 100 | – | – |
| COc1ccc2c(c1)[nH]c1c3ccc(OC)cc3oc(=O)c21 | – | – | – | – | – | – | > 100 | – | – |
| CCCC(=O)OC(OC(=O)CCC)c1ccc([N+](=O)[O-])o1 | – | – | – | – | – | – | 46.3 | – | – |
| O=C1C=CC(=O)c2c(O)c(N(CCCl)CCCl)c(Cl)c(O)c21 | – | – | – | – | – | – | 5.79 | – | – |
| CCOC(=O)Cc1cc(=O)[nH]c(-n2[nH]c(C)c(CCO)c2=O)n1 | – | – | – | – | – | – | > 100 | – | – |
| O=C(N/C(=C\c1ccc(F)cc1)c1nc2ccccc2[nH]1)c1ccccc1 | > 100 | – | > 100 | > 100 | > 100 | > 100 | – | > 100 | – |
| Cc1c(Cl)cccc1NC(=O)C(=O)c1c(O)c2ccc(O)cc2oc1=O | > 100 | > 100 | > 100 | > 100 | > 100 | > 100 | – | – | – |
| CN(C)Cc1cc(C(C)(C)C)cc(CN(C)C)c1O | – | – | – | – | – | – | > 100 | – | – |
| C1CC[N-]CC1.CC(=N\O)/C(C)=N/O.CC(=N\O)/C(C)=N/O.C[CH-]C(C)O.[Co+2] | – | – | – | – | – | – | 77 | – | GI50 [7]: 26.6 µM |
| CC(CC(=O)Nc1ccc(NC(=O)CC(C)N=NC(N)=O)cc1)N=NC(N)=O (stereo not drawn) | 38.2 | > 100 | > 100 | > 100 | – | > 100 | – | – | – |
| CCN1CCC(O)(/C=C/c2ccccc2)C(C(=O)/C=C/c2ccccc2)C1 (stereo not drawn) | 5.6 | 3.27 | 7.22 | 4.18 | 11.5 | 18.5 | – | 15 | – |
| COc1cc([C@@H]2c3cc4c(cc3[C@@H](NCc3cccc(F)c3)C3COC(=O)[C@@H]32)OCO4)cc(OC)c1O (stereo partly drawn) | 31.6 | 14.3 | 21.2 | – | 57.7 | – | – | – | – |
| Cc1ccc(C)c(NC(=O)C(=O)Nn2c(=S)[nH]c3ccccc3c2=O)c1 | > 100 | > 100 | > 100 | – | > 100 | – | – | > 100 | – |
| COc1cc(CCc2ccncc2)cc(OC)c1OC | > 100 | > 100 | > 100 | > 100 | > 100 | > 100 | – | > 100 | – |
| C=C1C(=O)OC2(C)CCC1CC1OC1(C)CCC=C(C)CCC2O (stereo not drawn) | – | – | – | – | – | – | 97.4 | – | – |
| C=CCCC(=O)CC(=O)OCc1ccccc1 | > 100 | > 100 | > 100 | > 100 | > 100 | > 100 | – | > 100 | – |
| COC(=O)C#CC(N)=O | > 100 | > 100 | > 31.6 | > 100 | > 100 | – | – | > 100 | – |
| CC1OC(=O)N2CCC=CC12 (stereo not drawn) | > 100 | > 100 | > 100 | > 100 | > 100 | > 100 | – | > 100 | – |
| C/C(=N\Nc1n[nH]c(=S)n1N)c1c(O)cc(C)oc1=O | – | – | > 100 | > 100 | > 100 | – | – | – | – |
| CN1C/C(=C\c2ccc(C(=O)O)cc2)C(=O)/C(=C/c2ccc(C(=O)O)cc2)C1 | > 100 | > 100 | > 100 | > 100 | > 100 | > 100 | – | > 100 | – |
| C#C[C@@H](CCCC)OC(=O)N[C@H](C)c1ccccc1 | > 100 | > 100 | > 100 | > 100 | > 100 | > 100 | – | > 100 | – |
| CC(=O)[O][Hg][c]1s[c]([Hg][O]C(C)=O)[c]([Hg][O]C(C)=O)[c]1[Hg][O]C(C)=O | – | > 100 | 37.3 | > 100 | – | – | – | – | GI50 [2]: 3.6 µM; GI50 [3]: 14.3 µM; GI50 [4]: 3.99 µM; GI50 [5]: 1.42 µM |
| NC1=C(O)C(=O)C(c2c[nH]c3ccc(OCc4ccccc4)cc23)O1 (stereo not drawn) | – | – | – | – | – | – | > 100 | – | – |
| COc1ccc(/C=C2/CSC/C(=C/c3ccc(OC)c(OC)c3)C2=O)cc1OC | – | 3.09 | 6.53 | 6.63 | > 100 | 25.8 | 8.89 | 6.41 | – |

| Compound | TGI [1] [µM] | TGI [2] [µM] | TGI [3] [µM] | TGI [4] [µM] | TGI [5] [µM] | TGI [6] [µM] | TGI [7] [µM] | TGI [8] [µM] | other results |
| --- | --- | --- | --- | --- | --- | --- | --- | --- | --- |
| COC(=N)CCCl | – | – | – | – | – | – | > 100 | – | – |
| Cc1nc(-n2nc(-c3ccccc3)cc2-c2ccccc2)sc1C(=O)CC(=O)C(=O)Nc1ccc(O)cc1 | > 100 | > 100 | > 100 | – | > 100 | – | – | > 100 | – |
| O=C(CCc1cc(-c2ccc(F)cc2)n[nH]1)N(Cc1ccccc1)Cc1ccccc1 | > 100 | > 100 | > 100 | > 100 | > 100 | > 100 | – | – | – |
| Nc1ccn(C2CC3OCC3O2)c(=O)n1 (stereo not drawn) | – | – | – | – | – | – | > 100 | – | – |
| N#C/C(=C1\OC(N)=C(c2ccc(Cl)cc2)C1=O)c1ccc(Cl)cc1 | 29.3 | 26.7 | 33 | 31.4 | 31.4 | – | – | – | – |
| CC1=CC(=O)N2C(OC[C@@H]2c2ccccc2)O1 (stereo partly drawn) | – | – | > 100 | > 100 | – | > 100 | – | – | – |
| N#CC(C#N)C(c1ccccc1)c1ccccc1 | > 100 | > 100 | > 100 | – | > 100 | – | – | > 100 | – |
| O=C1C(=Cc2ccc(F)cc2)C(=O)c2ccccc21 | > 100 | > 100 | > 100 | > 100 | – | > 100 | – | > 100 | – |
| O/N=C1\C(=C\c2ccc3c(c2)OCCO3)CCCC1C(NO)c1ccc2c(c1)OCCO2 (stereo not drawn) | 44.6 | 43 | 35.6 | 52.5 | > 100 | – | – | > 100 | – |
| CC/C(C)=C1\CCC(CN(C)C)C1=O (stereo not drawn) | 41.8 | 33.3 | 47.5 | 32.6 | 54.8 | 34.7 | – | 34.4 | – |
| CC1=C2C3OC(=O)C(C)C3C(O)C[C@@]2(C)C(=O)CC1 (stereo partly drawn) | > 100 | > 100 | > 100 | > 100 | > 100 | – | – | > 100 | – |
| O=[N+]([O-])c1ccc2nc(-c3ccc(Cl)cc3)[nH]c2c1 | – | – | – | – | – | – | 51.1 | – | – |
| CCC(C)N1CN(c2ccccc2)C2(CCN(CCCC3(c4ccc(F)cc4)OCCO3)CC2)C1=O (stereo not drawn) | – | – | – | – | – | – | 17.9 | – | – |
| CCCCCC/C(CC(=O)CCC(=O)NCCc1ccccc1)=N\Nc1ccc([N+](=O)[O-])cc1[N+](=O)[O-] | 56.4 | > 100 | > 100 | > 100 | > 100 | – | – | > 100 | – |
| NC1=Nc2ccccc2Sc2ccccc21 | > 100 | > 100 | > 100 | > 100 | > 100 | > 100 | – | – | – |
| CN(C)C(=S)/N=c1\ss/c(=N\S(=O)(=O)c2ccccc2)n1C | > 100 | > 100 | > 100 | > 100 | > 100 | > 100 | – | – | – |
| CCOC(=O)CN1C(=O)C(=O)N(c2ccc(OC)c3ccccc23)C1=O | – | – | – | – | – | – | > 100 | – | – |
| CN1CCN(c2nc3cc(F)ccc3n3cccc23)CC1 | – | – | – | – | – | – | > 100 | – | – |
| CCOc1ccccc1N=Cc1c2ccccc2cc2ccccc12 | – | – | – | – | – | – | 53.3 | – | – |
| O=C1CC2OCC=C3CN4CCC5(C(=O)O)C(N1)C2C3CC45 (stereo not drawn) | – | – | – | – | – | – | > 100 | – | – |
| COC(=O)Nc1nc2ccc(C(=O)c3cccs3)cc2[nH]1 | > 100 | > 100 | 0.0377 | > 100 | > 63.1 | 0.0934 | 2.57 | > 61.8 | – |
| CCN(CC)CCNc1ccc([N+](=O)[O-])c2nc3ccc(OC)cc3c(N)c12 | – | – | – | – | – | – | 3.26 | – | – |
| N#CNC1=NCCC(=O)N1CCc1c[nH]c2ccccc12 | > 100 | > 100 | – | > 100 | > 100 | > 100 | – | – | – |
| Cc1c(C2CCSc3ccccc3N2)sc2ccccc12 (stereo not drawn) | – | – | – | – | – | – | > 100 | – | – |
| CSCC[C@H](NC(=O)[C@@H](N)CC(N)=O)C(=O)N[C@@H](Cc1c[nH]c2ccccc12)C(=O)N[C@@H](CCC(N)=O)C(=O)N[C@@H](CCC(=O)O)C(=O)N[C@H](C(=O)NCC(=O)N[C@@H](CCCCN)C(=O)N[C@H](C)C(=O)O)C(C)C (H-NMWQEVGK[dA]-OH) | – | – | – | – | – | – | > 100 | – | – |

Source: PubChem BioAssay (NCI)
